According to PubChem BioAssay (NCI):
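All cell lines were grown in 96-well plates and treated with compound for 48 hours. At the TGI there is no net growth.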

Columns and labels:
Test in all cases: growth of human tumour cells (NCI), 48 h
[1] = system: 786-0 renal
[2] = system: A498 renal
[3] = system: A549 NSCLC
[4] = system: ACHN renal
[5] = system: BT-549 breast
[6] = system: CAKI-1 renal
[7] = system: CCRF-CEM leukemia
[8] = system: COLO 205 colon
[9] = system: DU-145 prostate
[10] = system: EKVX NSCLC
[11] = system: HCC-2998 colon
[12] = system: HCT-116 colon
[13] = system: HCT-15 colon
[14] = system: HL-60(TB) leukemia
[15] = system: HOP-62 NSCLC
[16] = system: HOP-92 NSCLC
[17] = system: HS 578T breast
[18] = system: HT29 colon
[19] = system: IGROV1 ovarian
[20] = system: K-562 leukemia
[21] = system: KM12 colon
[22] = system: LOX IMVI melanoma
[23] = system: M14 melanoma
[24] = system: MALME-3M melanoma
[25] = system: MCF7 breast
[26] = system: MDA-MB-231 breast
[27] = system: MDA-MB-435
[28] = system: MDA-N
[29] = system: MOLT-4 leukemia
[30] = system: NCI-H226 lung
[31] = system: NCI-H23 lung
[32] = system: NCI-H460 lung
[33] = system: NCI-H522 lung
[34] = system: NCI/ADR-RES ovarian
[35] = system: OVCAR-3 ovarian
[36] = system: OVCAR-4 ovarian
[37] = system: OVCAR-5 ovarian
[38] = system: OVCAR-8 ovarian
[39] = system: PC-3 prostate
[40] = system: RPMI-8226 leukemia
[41] = system: RXF 393 renal
[42] = system: SF-268 CNS
[43] = system: SF-295 CNS
[44] = system: SF-539 CNS
[45] = system: SK-MEL-2 melanoma
[46] = system: SK-MEL-28 melanoma
[47] = system: SK-MEL-5 melanoma
[48] = system: SK-OV-3 ovarian
[49] = system: SN12C renal
[50] = system: SNB-19 CNS
[51] = system: SNB-75 CNS
[52] = system: SR leukemia
[53] = system: SW-620 colon
[54] = system: T-47D breast
[55] = system: TK-10 renal
[56] = system: U251 CNS
[57] = system: UACC-257 melanoma
[58] = system: UACC-62 melanoma
[59] = system: UO-31 renal

In the case of `COc1cc2c3c(cc(Cl)nc3c1OC)C(O)(CC(C)=O)C(=O)N2` (centres undefined), the TGI [1] was 30.9 µM, the TGI [2] was 33.2 µM and the TGI [3] was over 62.3 µM. The TGI [4] was over 54 µM, the TGI [5] was 30.8 µM and the TGI [6] was 37.7 µM. It also gave a TGI [7] of over 45.4 µM, a TGI [8] of over 100 µM and a TGI [9] of over 53.6 µM. It also gave a TGI [10] of 30.9 µM, a TGI [11] of over 60.5 µM and a TGI [12] of 31.3 µM. The TGI [13] was over 62.5 µM, the TGI [14] was 24.1 µM and the TGI [15] was over 59.8 µM. The TGI [16] was 34.3 µM, the TGI [17] was over 100 µM and the TGI [18] was over 61.9 µM. It also gave a TGI [19] of 36.6 µM, a TGI [20] of over 95 µM and a TGI [21] of over 61.6 µM. For the same compound, the TGI [22] was 34.8 µM, the TGI [23] was 36.5 µM and the TGI [24] was 29.8 µM. For the same compound, the TGI [25] was 35.9 µM, the TGI [26] was 33 µM and the TGI [27] was 30.9 µM. The TGI [28] was 31.1 µM, the TGI [29] was over 34.5 µM and the TGI [30] was over 57.3 µM. The TGI [31] was over 60.8 µM, the TGI [32] was over 89.6 µM and the TGI [33] was 26 µM. For the same compound, the TGI [34] was over 63.9 µM, the TGI [35] was over 100 µM and the TGI [36] was 32.4 µM. For the same compound, the TGI [37] was over 56.4 µM, the TGI [38] was 36.2 µM and the TGI [39] was over 56.4 µM. The TGI [40] was over 78.6 µM, the TGI [41] was 30.7 µM and the TGI [42] was 18 µM. For the same compound, the TGI [43] was over 100 µM, the TGI [44] was over 100 µM and the TGI [45] was 45.7 µM. The TGI [46] was over 60.7 µM, the TGI [47] was over 56 µM and the TGI [48] was over 72.8 µM. The TGI [49] was 36.1 µM, the TGI [50] was over 54.7 µM and the TGI [51] was over 55.9 µM. For the same compound, the TGI [52] was over 66.9 µM, the TGI [53] was over 71 µM and the TGI [54] was over 100 µM. The TGI [55] was 37.3 µM, the TGI [56] was over 100 µM and the TGI [57] was 21.5 µM. The TGI [58] was 31.5 µM and the TGI [59] was over 55.6 µM.
